Results from patent US10231980B2, “Cortexolone 17alpha-benzoate for use in the treatment of tumours” (COSMO TECHNOLOGIES LTD., priority 2014, dated 2019).
pIC50: −log10 of the molar value. Where two headings read alike, the source gives them in different places.

Assays:
[1] = tested on: stimulated PBMC; assay: IC50 on stimulated (actively dividing) PBMC; assay type: cell-based, human; settings: Homo sapiens, PBMC, PBMC STIMULATED; Table IV; read-out: In vitro proliferation IC50
Experimental: (§1) The compound toxicity was determined as follow:
(§2) Therapeutic Index=Safety/Potency=IC50 stimulated PBMC/IC50 cancer cell

[2] = tested on: LNCaP; assay: ATP-dependent cell viability assay (Cell Titer Glo), Example 12; settings: for pIC50: Homo sapiens, LNCaP; for Therapeutic Index = IC50 resting PBMC/IC50 cancer cell / Therapeutic Index = IC50 stimulated PBMC/IC50 cancer cell: human, 3 days
Description: (§3) Data shown in Table I were fitted through sigmoidal dose response curves and analyzed using Prizm statistical.

[3] = tested on: MiaPaca2; assay: as above; settings: for pIC50: Homo sapiens; for Therapeutic Index = IC50 resting PBMC/IC50 cancer cell / Therapeutic Index = IC50 stimulated PBMC/IC50 cancer cell: human, 3 days
Description: as §3

[4] = tested on: PC3; assay: as above; settings: for pIC50: Homo sapiens; for Therapeutic Index = IC50 resting PBMC/IC50 cancer cell / Therapeutic Index = IC50 stimulated PBMC/IC50 cancer cell: human
Description: as §3

[5] = tested on: Panc1; assay: as above; settings: for pIC50: Homo sapiens; for Therapeutic Index = IC50 resting PBMC/IC50 cancer cell / Therapeutic Index = IC50 stimulated PBMC/IC50 cancer cell: human, 3 days
Description: as §3

[6] = tested on: MCF7; assay: In vitro proliferation / cytotoxic assay on breast cancer cells (Examples 14, 25); settings: for Therapeutic Index = IC50 resting PBMC/IC50 cancer cell / Therapeutic Index = IC50 stimulated PBMC/IC50 cancer cell: human, 3 days
Experimental: as §3
For the cytotoxic assay, cells were seeded in 96-well flat bottom culture plates in media containing charcoal stripped serum. After 24 hours, test compounds were added to the cells. DMSO was used as the vehicle negative control and RU486 as the positive control. After 72 hour incubation, cells were harvested and lysed to determine cell viability using the Cell Titer Glow assay.

[7] = tested on: 7 cancer cell lines; assay: Therapeutic index over a panel of cancer cell lines; assay type: cell-based; settings: average over the cancer cell lines of Table VII
Experimental: as §1, §2

[8] = tested on: stimulated PBMC; assay: IC50 on stimulated (actively dividing) PBMC; assay type: cell-based, human; settings: PBMC Stim; Table IV
[9] = tested on: HT29; assay: MTT colorimetric assay on epithelial intestinal cancer cells; assay type: cell-based; settings: for pIC50: Homo sapiens, HT-29, HT29
Experimental: The experiment was performed to test and define anticancer activity in vitro of Cortexolone 17α-benzoate and cortexolone 17α-valerate, 21-propionate on cell lines representatives of epithelial intestinal tumours, namely HT29. The experiment method consisted in: • 1. Monolayer HT-29 cells were plated in: 96-wells plates at the density of 2×10^4 cells/mL. The cells plated were kept at 37° C. in 5% CO2 and left to attach for 24 h. • 2. […] After 72 h of treatment, the MTT colorimetric assay was performed.

[10] = tested on: caspases 8, 9, 3/7 in MiaPaca2 cells; assay: Caspase 8, 9 and 3/7 activity; assay type: cell-based
Experimental: To better analyze the phenomenon, the enzymatic activity of Caspase 8 (initiator caspase for Extrinsic Pathway) and Caspase 9 (initiator caspase for Intrinsic Pathway) and of Caspases 3 and 7 (effector caspases) were measured.
Gemcitabine (a known pancreatic cancer chemotherapeutic agent) and DMSO were used as positive and negative controls, respectively. There were three incubation time points: 8 hours, 24 hours, and 48 hours. After each time point, cells were lysed in multiplex buffer containing the caspase 3/7 substrate combined with either caspase 8 or caspase 9 reagents, which contain stable luciferase in proprietary buffers. The lysates were transferred to white opaque 96-well plates before measuring luminescence on a Tecan Safire instrument. Parallel plates treated identically were used to determine cell viability. All caspase activities were corrected for the number of viable cells.

[11] = read-out: In vitro proliferation IC50
[12] = PC-3, 72 h, PC3, Tables I and II, titrated 3 uM to 200 uM, 3 days
[13] = PC-3, read-out: In vitro proliferation IC50, PC3, Table IV

Structure (SMILES) | pIC50 ([2]; 72 h) | pIC50 [2, 11] | Therapeutic Index = IC50 resting PBMC/IC50 cancer cell [2] | Therapeutic Index = IC50 stimulated PBMC/IC50 cancer cell [2] | Therapeutic Index = IC50 resting PBMC/IC50 cancer cell [3] | Therapeutic Index = IC50 stimulated PBMC/IC50 cancer cell [3] | pIC50 [4, 12] | pIC50 [4, 13] | Therapeutic Index = IC50 resting PBMC/IC50 cancer cell ([4]; 3 days) | Therapeutic Index = IC50 stimulated PBMC/IC50 cancer cell ([4]; 3 days) | Therapeutic Index = IC50 resting PBMC/IC50 cancer cell [5] | Therapeutic Index = IC50 stimulated PBMC/IC50 cancer cell [5] | Therapeutic Index = IC50 resting PBMC/IC50 cancer cell [6] | Therapeutic Index = IC50 stimulated PBMC/IC50 cancer cell [6] | Therapeutic Index = IC50 stimulated PBMC/IC50 cancer cell, AVERAGE [7] | Therapeutic Index = IC50 resting PBMC/IC50 cancer cell [8] | other results
CCCC(=O)OCC(=O)[C@@]1(OC(=O)CCC)CCC2C3CCC4=CC(=O)CC[C@]4(C)C3CC[C@@]21C (some centres unmarked) [CB-03-03] | 4.80 | 4.80 | 9 | 9 | 5 | 5 | 4.28 | 4.28 | 3 | 3 | 2 | 2 | 4 | 4 | 4 | 1 | pIC50 [1]: 3.85; pIC50 ([3]; MIA PaCa-2, 72 h): 4.52; pIC50 ([3]; MIA PaCa-2, read-out: In vitro proliferation IC50): 4.52; pIC50 ([5]; PANC-1, 72 h): 4.15; pIC50 ([5]; PANC-1, read-out: In vitro proliferation IC50): 4.15; pIC50 ([6]; Homo sapiens, MCF7, read-out: In vitro proliferation IC50): 4.49
CCCCC(=O)O[C@]1(C(=O)CO)CC[C@H]2[C@@H]3CCC4=CC(=O)CC[C@]4(C)[C@H]3CC[C@@]21C [CB-03-05, cortexolone 17α-valerate] | 4.49 | 4.49 | 4 | 4 | 2 | 2 | 3.77 | 3.77 | 1 | 1 | 2 | 2 | 3 | 3 | 3 | 1 | pIC50 ([9]; Table III, read-out: in vitro proliferation IC50): 4.46; pIC50 ([9]; Table IV, read-out: In vitro proliferation IC50): 4.46; Therapeutic Index = IC50 resting PBMC/IC50 cancer cell ([9]; human, 72 h): 4; Therapeutic Index = IC50 stimulated PBMC/IC50 cancer cell ([9]; human, 72 h): 4; pIC50 [2]: 4.49; pIC50 ([2]; read-out: in vitro proliferation IC50): 4.49; pIC50 ([4]; PC-3, read-out: in vitro proliferation IC50, PC3, Table III): 3.77; effect on viability, in words ([6]; MCF7): only active in MCF7; profile for caspase activation [10]: does not show a good profile for caspase activation
